Measured values reported in PubChem BioAssay AID248 (DTP/NCI, 2004).
Values joined by “and” are separate entries in the source; they are usually repeats but may differ in a detail not shown here. Equal entries are not always repeated. Inconclusive results and toxic doses are left out. Rule as the data show it: active = T/C of 150% or more; inactive = T/C below 125%.

Tested on: L1210 leukemia ip in BDF1 mice, survival T/C
Assay: NCI In Vivo Anticancer Drug Screen. Data for tumor model L1210 Leukemia (intraperitoneal) in B6D2F1 (BDF1) mice
Conditions: endpoint: mean survival time, higher = longer survival
Method in brief: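 Ratio derived from survival: compound-dosed mice over vehicle-dosed mice, all bearing a transplantable tumor.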

[1] = dose: 12.5 mg/kg/injection, schedule: Q01DX009 (ip), vehicle: saline
[2] = dose: 25.0 mg/kg/injection, schedule: Q01DX009 (ip), vehicle: saline
[3] = dose: 50.0 mg/kg/injection, schedule: Q01DX009 (ip), vehicle: saline
[4] = dose: 100.0 mg/kg/injection, schedule: Q01DX009 (ip), vehicle: saline with Tween-80
[5] = dose: 200.0 mg/kg/injection, schedule: Q01DX009 (ip), vehicle: saline with Tween-80
[6] = dose: 100.0 mg/kg/injection, schedule: Q01DX009 (ip), vehicle: Klucel (hydroxypropylcellulose) (HPC)
[7] = dose: 200.0 mg/kg/injection, schedule: Q01DX009 (ip), vehicle: Klucel (hydroxypropylcellulose) (HPC)
[8] = dose: 100.0 mg/kg/injection, schedule: Q01DX001 (ip), vehicle: saline
[9] = dose: 200.0 mg/kg/injection, schedule: Q01DX001 (ip), vehicle: saline
[10] = dose: 400.0 mg/kg/injection, schedule: Q01DX001 (ip), vehicle: saline
[11] = dose: 100.0 mg/kg/injection, schedule: Q04DX003 (ip), vehicle: saline
[12] = dose: 100.0 mg/kg/injection, schedule: Q04DX002 (ip), vehicle: Klucel (hydroxypropylcellulose) (HPC)
[13] = dose: 200.0 mg/kg/injection, schedule: Q04DX002 (ip), vehicle: Klucel (hydroxypropylcellulose) (HPC)
[14] = dose: 400.0 mg/kg/injection, schedule: Q04DX002 (ip), vehicle: Klucel (hydroxypropylcellulose) (HPC)
[15] = dose: 100.0 mg/kg/injection, schedule: Q01DX001 (ip), vehicle: Klucel (hydroxypropylcellulose) (HPC)
[16] = dose: 100.0 mg/kg/injection, schedule: Q04DX003 (ip), vehicle: Klucel (hydroxypropylcellulose) (HPC)
[17] = dose: 200.0 mg/kg/injection, schedule: Q04DX003 (ip), vehicle: Klucel (hydroxypropylcellulose) (HPC)
[18] = dose: 200.0 mg/kg/injection, schedule: Q04DX003 (ip), vehicle: saline

Measured: T/C

O=[N+]([O-])c1ccc(S(=O)[O-])cc1.O=[N+]([O-])c1ccc(S(=O)[O-])cc1.[Zn+2]
inactive: dose: 75.0 mg/kg/injection, schedule: Q01DX001 (ip), vehicle: saline 102 % of control | dose: 150.0 mg/kg/injection, schedule: Q01DX001 (ip), vehicle: saline 110 % of control

C=C1CC[N+]2(C)CCCC12 (stereo unspecified)
inactive: [1] 100 % of control | [2] 113 % of control | [3] 95 % of control and 91 % of control

CC(C)=CCOc1ccc2c(c1)OCO2
inactive: dose: 100.0 mg/kg/injection, schedule: Q04DX002 (ip), vehicle: saline with Tween-80 91 % of control | dose: 200.0 mg/kg/injection, schedule: Q04DX002 (ip), vehicle: saline with Tween-80 103 % of control

CCCCC1(C2CCCC2)NC(C)(C)CC(C)O1 (stereo unspecified)
inactive: [4] 95 % of control | [5] 104 % of control

O=C(Nc1ccc([N+](=O)[O-])cc1)c1cc(Cl)c2ccccc2c1O
inactive: [6] 106 % of control | [7] 98 % of control

O=C1CC(=O)N(c2ccccc2)N1
inactive: [8] 96 % of control | [9] 98 % of control | [10] 98 % of control

CC(C)OCCCN=C(N)N
inactive: [1] 100 % of control | [2] 98 % of control | dose: 25.0 mg/kg/injection, schedule: Q04DX003 (ip), vehicle: saline 101 % of control | [3] 102 % of control and 104 % of control | dose: 50.0 mg/kg/injection, schedule: Q04DX003 (ip), vehicle: saline 96 % of control | [11] 96 % of control

CC(C)OC(=O)Nc1cccnc1
inactive: [12] 92 % of control | [13] 98 % of control | [14] 103 % of control

O=C(Nc1ccccc1F)OCCOc1ccccc1
inactive: [15] 97 % of control | [6] 95 % of control and 97 % of control | [12] 98 % of control and 115 % of control | dose: 200.0 mg/kg/injection, schedule: Q01DX001 (ip), vehicle: Klucel (hydroxypropylcellulose) (HPC) 97 % of control | [7] 95 % of control and 102 % of control | [13] 106 % of control and 115 % of control | dose: 400.0 mg/kg/injection, schedule: Q01DX001 (ip), vehicle: Klucel (hydroxypropylcellulose) (HPC) 94 % of control | dose: 400.0 mg/kg/injection, schedule: Q01DX009 (ip), vehicle: Klucel (hydroxypropylcellulose) (HPC) 95 % of control and 103 % of control | [14] 100 % of control and 103 % of control

OCCc1cc2ccccc2s1
inactive: [16] 107 % of control | [17] 103 % of control | dose: 400.0 mg/kg/injection, schedule: Q04DX003 (ip), vehicle: Klucel (hydroxypropylcellulose) (HPC) 113 % of control

CN1CCC(CN2c3ccccc3Sc3ccccc32)C1 (stereo unspecified)
inactive: dose: 3.12 mg/kg/injection, schedule: Q01DX009 (ip), vehicle: saline 95 % of control | dose: 6.25 mg/kg/injection, schedule: Q01DX009 (ip), vehicle: saline 107 % of control | [1] 101 % of control | [2] 101 % of control

O=C(O)CCC(=O)NCCNC(=O)CC(=O)O
inactive: [8] 100 % of control | [9] 105 % of control | [10] 100 % of control

CCCCCCCCCCCC[Si](c1ccccc1)(c1ccccc1)c1ccccc1
inactive: dose: 100.0 mg/kg/injection, schedule: Q04DX003 (ip), vehicle: other 94 % of control | dose: 200.0 mg/kg/injection, schedule: Q04DX003 (ip), vehicle: other 96 % of control | dose: 400.0 mg/kg/injection, schedule: Q04DX003 (ip), vehicle: other 90 % of control

Cc1cc(C)c(CCN(C)C)c(C)c1C
inactive: dose: 50.0 mg/kg/injection, schedule: Q01DX001 (ip), vehicle: saline 103 % of control | [8] 101 % of control | [9] 101 % of control

Cc1nc(N)[nH]c(=O)c1NC(=O)CBr
inactive: dose: 50.0 mg/kg/injection, schedule: Q01DX001 (ip), vehicle: Klucel (hydroxypropylcellulose) (HPC) 100 % of control | [15] 104 % of control

COc1cc2c(cc1[N+](=O)[O-])-c1ccc([N+](=O)[O-])cc1/C2=N/NC(N)=S
inactive: dose: 75.0 mg/kg/injection, schedule: Q01DX001 (ip), vehicle: carboxymethylcellulose (CMC) 101 % of control

CC(=O)NC(C)CC(C)C (stereo unspecified)
inactive: [11] 113 % of control | [18] 103 % of control

Cc1cc(N(CCOS(C)(=O)=O)CCOS(C)(=O)=O)ccc1N=O
inactive: dose: 62.5 micrograms/kg/injection, schedule: Q01DX010 (ip), vehicle: saline 121 % of control

Cn1cc(Br)c2ccccc2c1=O
inactive: dose: 25.0 mg/kg/injection, schedule: Q04DX003 (ip), vehicle: Klucel (hydroxypropylcellulose) (HPC) 87 % of control | dose: 50.0 mg/kg/injection, schedule: Q04DX003 (ip), vehicle: Klucel (hydroxypropylcellulose) (HPC) 101 % of control | [16] 94 % of control and 124 % of control

N#CC(C(=O)c1ccccc1)c1ccccc1 (stereo unspecified)
inactive: dose: 62.5 mg/kg/injection, schedule: Q04DX002 (ip), vehicle: Klucel (hydroxypropylcellulose) (HPC) 108 % of control | dose: 125.0 mg/kg/injection, schedule: Q04DX002 (ip), vehicle: Klucel (hydroxypropylcellulose) (HPC) 96 % of control

Cc1cc(=O)cc(C)[nH]1
inactive: [8] 90 % of control | [9] 94 % of control | [10] 92 % of control

CN(N)C(=N)N
inactive: dose: 100.0 mg/kg/injection, schedule: Q01DX009 (ip), vehicle: saline 102 % of control | dose: 200.0 mg/kg/injection, schedule: Q01DX009 (ip), vehicle: saline 101 % of control | dose: 400.0 mg/kg/injection, schedule: Q01DX009 (ip), vehicle: saline 96 % of control

CC1(Cc2ccccc2)CCC(=O)O1 (stereo unspecified)
inactive: [4] 98 % of control | dose: 100.0 mg/kg/injection, schedule: Q04DX003 (ip), vehicle: saline with Tween-80 98 % of control | [5] 100 % of control | dose: 200.0 mg/kg/injection, schedule: Q04DX003 (ip), vehicle: saline with Tween-80 96 % of control | dose: 400.0 mg/kg/injection, schedule: Q01DX009 (ip), vehicle: saline with Tween-80 87 % of control | dose: 400.0 mg/kg/injection, schedule: Q04DX003 (ip), vehicle: saline with Tween-80 104 % of control

O=c1c2c(=O)c3ccccc3c(=O)c=2c(=O)c2ccccc12
inactive: [12] 93 % of control | [13] 89 % of control | [14] 89 % of control

c1ccc(CN2C3c4ccccc4C2c2ccccc23)cc1
inactive: [8] 96 % of control | [9] 112 % of control | [10] 95 % of control

O=C(NCCCl)Nc1ncccn1
inactive: dose: 100.0 mg/kg/injection, schedule: Q01DX001 (ip), vehicle: carboxymethylcellulose (CMC) 97 % of control | dose: 200.0 mg/kg/injection, schedule: Q01DX001 (ip), vehicle: carboxymethylcellulose (CMC) 106 % of control | dose: 400.0 mg/kg/injection, schedule: Q01DX001 (ip), vehicle: carboxymethylcellulose (CMC) 103 % of control

CCCC/C=C/Br
inactive: [11] 100 % of control | dose: 200.0 mg/kg/injection, schedule: Q01DX009 (ip), vehicle: acetone 101 % of control | [18] 108 % of control | dose: 400.0 mg/kg/injection, schedule: Q04DX003 (ip), vehicle: saline 105 % of control

CC(C)(C)c1cc(CN2CCCC(O)C2)c(O)c(-c2ccccc2)c1 (stereo unspecified)
inactive: [11] 98 % of control | [18] 98 % of control

O=c1c(Cl)c(C(Cl)(Cl)Cl)c2ccccc2n1O
inactive: [16] 101 % of control | [17] 86 % of control

N/N=C/c1cc2ccccc2c2ccccc12
inactive: [12] 97 % of control | [13] 91 % of control | [14] 87 % of control
